Measured values taken from patent US20230047788A1, “COMPOSITIONS COMPRISING 5-CHOLESTEN-3, 25-DIOL, 3-SULFATE (25HC3S) OR PHARMACEUTICALLY ACCEPTABLE SALT THEREOF AND AT LEAST ONE CYCLIC OLIGOSACCHARIDE” (Virginia Commonwealth University, priority 2016, published 2023).

Legend:
[1] = Osmolality of 30 mg/mL 25HC3S, 250 mg/mL HPbCD, 10 mM phosphate solution; type: physicochemical; conditions: 30 mg/mL 25HC3S sodium salt, 10 mM sodium phosphate buffer in water
Experimental: The optimal concentration of HPbCD to solubilize a high amount of 25HC3S, and to contain a small amount of buffer (10 mM phosphate buffer) to minimize pH changes on stability, is 250 mg/mL HPbCD. The solution of 30 mg/mL 25HC3S sodium salt, 250 mg/mL HPbCD with 10 mM sodium phosphate buffer in water has an osmolality of approximately 320 mmol/kg. Isotonic solutions range from 270-340 mmol/kg. Higher concentrations of HPbCD greater than 250 mg/mL with higher than 30 mg/mL concentrations of 25HC3S lead to hypertonic solutions. Hypertonic solutions can cause pain upon subcutaneous and intramuscular injection. Conversely, concentrations of HPbCD much less than 250 mg/mL with much less than 30 mg/mL concentrations of 25HC3S require the addition of an isotonic agent, such as sodium chloride or mannitol, to bring the isotonicity into the expected range for a parenteral dosage form.

[2] = Solubility of 25HC3S in 10 mM sodium phosphate buffer pH 7.6 with HPbCD at 5, 15 and 25°C; type: physicochemical
Experimental: A total of five suspensions of 25HC3S were prepared in 10 mM sodium phosphate buffer at pH 7.6 containing 0, 50, 100, 250 and 400 mg/mL HPbCD. The suspensions were initially sonicated and then stirred. Each suspension (40 mL for the suspension without HPbCD and 20 mL for the remaining suspensions) was then equally divided into 3 vials and stored in 5° C., 15° C. and 25° C./60% relative humidity (RH) stability chambers.
Each suspension was stirred constantly in the stability chambers by a small spin bar and electronic stirrer. At day 1 and day 3, half of each suspension (approximately 6 mL for the sample without HPbCD and 3 mL for the rest of the suspensions with HPbCD) was withdrawn from the vial with a 3 or 5 mL disposable syringe. A syringe filter was then attached to the syringe for filtration of the suspensions. To minimize sample temperature changes during filtration, the syringe and filter were equilibrated at the respective stability chamber temperatures before their use. Approximately 3 mL of the filtrate for the sample without HPbCD and 1 mL of the filtrate for the remaining suspensions in HPbCD were discarded to ensure that the filter membrane was sufficiently saturated with 25HC3S to prevent absorption of the drug from the remaining filtrate. Then approximately 0.5 mL to 1.5 mL of filtrate was collected for HPLC analysis. At day 3, the remaining filtered portions were measured for pH. Reverse phase HPLC was used for measuring the concentration of 25HC3S in the solubility samples.

[3] = human, in vivo
Experimental: This example describes a randomized, double-blind, placebo-controlled, safety and pharmacokinetic study of a parenteral formulation of 25HC3S. The study involved the administration of 25HC3S sodium salt to healthy subjects via intramuscular injections (IM) as i) single ascending doses (SAD) in the range of 30-300 mg and as ii) a multiple ascending dose (MAD) study using multiple IM doses of 150 mg administered daily for 5 days (see Table 13). All subjects were male, with an age range of 19-36 years.
In Part A of the study (SAD), a parenteral dose of 25HC3S or matching placebo was administered intramuscularly (IM) to cohorts of 6 healthy subjects (4 randomized to 25HC3S and two randomized to matching placebo on a double-blind basis). The initial dose was 30 mg and subsequent cohorts of 6 different subjects received doses of 90, 150, and 300 mg of 25HC3S. A total of 16 subjects received 25HC3S and 8 received placebo in Part A. In Part B (MAD), a parenteral dose of 150 mg 25HC3S or matching placebo was administered IM once daily for 5 days, altering injection sites, to a single cohort of 10 healthy subjects (8 randomized to 25HC3S and two randomized to matching placebo on a double-blind basis; see Table 14).
Safety assessments included periodic monitoring of routine vital signs, safety laboratory tests and 12 lead ECG collection. Subjects completed a screening phase, treatment and an end-of-study visit. Dose escalation to the next dose level in Part I and Part II of the study was undertaken following review of the preceding dose results.
Pain intensity (measured on a 0-10 numeric rating scale) was assessed after each injection, and the injection sites were examined for tenderness, redness, bruising, swelling and induration at specified time points after injection.

## C[C@H](CCCC(C)(C)O)[C@H]1CC[C@H]2[C@@H]3CC=C4C[C@@H](OS(=O)(=O)[O-])CC[C@]4(C)[C@H]3CC[C@]12C.[Na+] [25HC3S, 5-cholesten-3, 25-diol, 3-sulfate]
[1]
  Osmolality: approximately 320 mmol/kg
[2]; 5°C, HPbCD 0 mg/mL
  pH of Filtrate Day 3: 7.62
[2]; 5°C, HPbCD 50 mg/mL
  pH of Filtrate Day 3: 7.70
[2]; 5°C, HPbCD 50 mg/mL, phosphate buffer pH 7.6
  Solubility at Day 3: 9.32 mg/mL
[2]; 5°C, HPbCD 100 mg/mL
  pH of Filtrate Day 3: 7.80
[2]; 5°C, HPbCD 100 mg/mL, phosphate buffer pH 7.6
  Solubility at Day 3: 18.31 mg/mL
[2]; 5°C, HPbCD 250 mg/mL
  pH of Filtrate Day 3: 8.06
[2]; 5°C, HPbCD 250 mg/mL, phosphate buffer pH 7.6
  Solubility at Day 3: 42.80 mg/mL
[2]; 5°C, HPbCD 400 mg/mL
  pH of Filtrate Day 3: 8.42
[2]; 5°C, HPbCD 400 mg/mL, phosphate buffer pH 7.6
  Solubility at Day 3: 66.89 mg/mL
[2]; 15°C, HPbCD 0 mg/mL
  pH of Filtrate Day 3: 7.59
[2]; 15°C, HPbCD 50 mg/mL
  pH of Filtrate Day 3: 7.77
[2]; 15°C, HPbCD 50 mg/mL, phosphate buffer pH 7.6
  Solubility at Day 3: 9.50 mg/mL
[2]; 15°C, HPbCD 100 mg/mL
  pH of Filtrate Day 3: 7.98
[2]; 15°C, HPbCD 100 mg/mL, phosphate buffer pH 7.6
  Solubility at Day 3: 18.51 mg/mL
[2]; 15°C, HPbCD 250 mg/mL
  pH of Filtrate Day 3: 8.07
[2]; 15°C, HPbCD 250 mg/mL, phosphate buffer pH 7.6
  Solubility at Day 3: 43.79 mg/mL
[2]; 15°C, HPbCD 400 mg/mL
  pH of Filtrate Day 3: 8.26
[2]; 15°C, HPbCD 400 mg/mL, phosphate buffer pH 7.6
  Solubility at Day 3: 68.10 mg/mL
[2]; 25°C/60% RH, HPbCD 0 mg/mL, phosphate buffer pH 7.6, centrifuged sample
  Solubility at Day 3: 0.006^1 mg/mL
[2]; 25°C/60% RH, HPbCD 50 mg/mL
  pH of Filtrate Day 3: 7.65
[2]; 25°C/60% RH, HPbCD 50 mg/mL, phosphate buffer pH 7.6
  Solubility at Day 3: 9.90 mg/mL
[2]; 25°C/60% RH, HPbCD 100 mg/mL, phosphate buffer pH 7.6
  Solubility at Day 3: 18.33 mg/mL
[2]; 25°C/60% RH, HPbCD 100 mg/mL, supernatant
  pH of Filtrate Day 3: 7.672
[2]; 25°C/60% RH, HPbCD 250 mg/mL, phosphate buffer pH 7.6
  Solubility at Day 3: 42.37 mg/mL
[2]; 25°C/60% RH, HPbCD 400 mg/mL, phosphate buffer pH 7.6
  Solubility at Day 3: 70.80 mg/mL
[2]; 25°C/60% RH, HPbCD 400 mg/mL, supernatant
  pH of Filtrate Day 3: 8.342
[2]; between 5°C and 25°C
  temperature dependence of solubility in the presence of HPbCD: not temperature dependent
[3]
  first time point with detectable drug levels: 0.5 h
  mean pain intensity (0-10 numeric rating scale): 0.8-3.5
  time by which pain had resolved after injection: ≤ 1 h
  time of maximal pain intensity after injection: 5 to 10 min
